Experiments:
[1] = system: BAEC, bEnd3, SB2, 3T3, BMDM and RAW264 cells; assay: In vitro uptake of IR783-SFB nanoparticles (fluorescence microscopy); format: cell-based; conditions: 2 h, 30 μg/ml particles or equivalent free dye
Experimental: Bone marrow derived macrophages (BMDM), RAW264 macrophages, and 3T3 fibroblasts did take up the nanoparticles efficiently. […] FIG. 4B depicts quantitative analysis of fluorescence intensity in the cell lines was conducted using ImageJ v1.40 (NIH, USA). The mean fluorescence intensities are expressed in arbitrary units per square micron. The increased uptake by endothelial cells and cancer cells as opposed to macrophages and fibroblasts is about 4 fold. FIG. 4C depicts confirmation of the differential uptake between cell lines, 3T3 fibroblasts (GFP) were co-cultured with SB2 liver cancer cells (RFP) to confluence and incubated with nanoparticles for 30 min. The cell morphology of the co-culture can be seen in bright light (upper left, DIC) and fluorescence channel (upper right).
The uptake of the sorafenib-IR783 nanoparticles (IR783-SFB) was tested in 6 cell types: endothelial cells (BAEC and bEnd3 cell line), liver HCC cells (SB2 cells, derived from the in vivo model), fibroblasts (3T3), and macrophages (BMDM and RAW264). The cells were incubated for 2 hours with 30 μg/ml and as a control with an equivalent amount of free IR783. The cells were washed and stained with Cell Mask (Life Sciences) for membrane staining and DAPI for nuclear staining. The cells were imaged with a florescence microscope equipped with an Indocyanine Green filter set, as depicted in FIGS. 4A-4B.

[2] = system: MYC-driven autochthonous murine hepatic tumor; assay: MYC/β-catenin driven liver tumor model: targeting and biodistribution; format: in vivo, FVB mice; conditions: near-IR fluorescence of livers 24 h after i.v. injection, sodium salt
Experimental: Sorafenib-containing nanoparticles were tested in vivo for imaging and treatment of hepatocellular carcinoma in an orthotopic model. FVB mice were transfected by hydrodynamic injection on day 0 with plasmids to C-Myc and beta-catenin to inoculate liver tumors. FIG. 5A depicts mice bearing liver tumors and healthy mice were injected with IR783-SFB (for example, at 20 mg/kg) at day 21 after inoculation. After 24 hours the livers were extracted and imaged using an IVIS Preclinical In Vivo Imaging System (Perkin Elmer) in fluorescence imaging mode. […] The tumors were also imaged by their GFP expression (right panel). […] The GFP expression in the tumors was also imaged (right panel).
Next, the biodistribution of INPs in a MYC-driven murine hepatic tumor model was evaluated. To generate autochthonous liver tumors, Sleeping Beauty transposon vectors encoding c-Myc and mutant β-catenin (coupled to GFP) were hydrodynamically delivered into immunocompetent FVB mice along with a vector encoding Sleeping Beauty transposase as described herein.
Hydrodynamic transfection was performed. […] Tumors were evaluated using fluorescence imaging (IVIS imaging system, Xenogen Corp., Hopkinton, Mass.) and immunohistochemistry (H&E). Tumor volume was measured using a caliper.

[3] = system: endothelial cells; 3T3-GFP / SB2 co-culture; assay: Photodynamic therapy in cell culture (NIR irradiation); format: cell-based; conditions: 30 min incubation, 1 min xenon lamp, imaged after 24 h
Experimental: The IR783-SFB nanoparticles were tested for the application of photodynamic therapy. The […] properties of the dyes may provide an added therapeutic benefit of the targeted nanoparticles. Endothelial and cancer cells were incubated with the nanoparticles for 30 min and then washed and exposed to NIR light from a Xenon lamp for 1 min. […] FIG. 8A depicts endothelial cells that were incubated for 30 min with NP and irradiated for 1 min with a xenon lamp (Xcite) using an ICG filter set (Chroma). […] After 24 h, the morphology of the irradiated area was altered and cells detached after washing (upper right).

[4] = system: MYC-driven autochthonous murine hepatic tumor; assay: MYC/β-catenin driven liver tumor model: anti-tumor efficacy; format: in vivo, FVB mice; conditions: 30 mg/kg sorafenib p.o. or as INP i.v., weekly for three weeks; endpoint about day 60
Experimental: For example, here 20 FVB mice were administered a hydrodynamic injection on day 0 with plasmids to C-Myc and beta-catenin to initiate liver tumors. The efficacy of IR783-SFB was compared to oral SFB. Treatments started at day 21 after inoculation and were administrated once weekly for 3 weeks.
To test the therapeutic potential of the INPs in vivo, the anti-tumor efficacy of equivalent drug doses in the liver cancer mouse model described above were either delivered intravenously via INPs or the orally administered free drug. Sorafenib or sorafenib INPs were injected weekly over the course of three weeks. […] Furthermore, quantitative measures of liver weight, tumor volume, and GFP emission confirmed virtually complete tumor eradication in INP-treated livers (FIGS. 12D-12F).
Hydrodynamic transfection was performed. Specifically, 10 μg pT3-EF1a-c-myc, 10 μg pT3-EF1a-β-CateninT41A-IRES-GFP and CMV-SB13 Sleeping Beauty transposase (1:5 ratio) were mixed in sterile saline solution. A total volume of plasmid-saline solution mix corresponding to 10% of the body weight was injected into the lateral tail vein of 6- to 8-week old female FVB/N mice (Jackson Laboratory, Me., USA) within 5-7 seconds. […] Tumors were evaluated using fluorescence imaging (IVIS imaging system, Xenogen Corp., Hopkinton, Mass.) and immunohistochemistry (H&E). Tumor volume was measured using a caliper.

[5] = Nanoparticle formation with indocyanine IR783 by nano-precipitation (DLS / visual precipitation)

## CC1(C)C(=CC=C2CCCC(C=CC3=[N+](CCCCS(=O)(=O)[O-])c4ccccc4C3(C)C)=C2Cl)N(CCCCS(=O)(=O)[O-])c2ccccc21.[Na+] [IR783, 2-[2-[2-Chloro-3-[2-[1,3-dihydro-3,3-dimethyl-1-(4-sulfobutyl)-2H-indol-2-ylidene]-ethylidene]-1-cyclohexen-1-yl]-ethenyl]-3,3-dimethyl-1-(4-sulfobutyl)-3H-indolium hydroxide, inner salt sodium salt]
[1]
  uptake (internalization) in cell lines: does not internalize in the cells
[2]; listed as free indocyanine
  accumulation in liver tumors: did not accumulate in tumors
[2]
  accumulation in liver tumors: does not accumulate
[3]
  effect on cells after NIR irradiation: no significant effect

## CNC(=O)c1cc(Oc2ccc(NC(=O)Nc3ccc(Cl)c(C(F)(F)F)c3)cc2)ccn1 [Sorafenib]
[4]
  anti-tumor efficacy in liver tumor model: multiple liver tumors

## Cc1onc(-c2ccccc2)c1-c1ccc(S(N)(=O)=O)cc1 [Valdecoxib]
[5]
  formation of nanoparticles with indocyanine: did not
